Toxic doses and inconclusive results are not listed.
System: B6C3F1 mice, Lewis lung carcinoma iv, survival T/C
Assay: NCI In Vivo Anticancer Drug Screen. Data for tumor model Lewis Lung Carcinoma (intravenous) in B6C3F1 mice
Conditions: endpoint: median survival time, higher = longer survival
Method in brief: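 Read-out is survival, expressed as the treated-group measurement over the vehicle control-group measurement. Animals bore a transplantable tumor and were given compound.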

[1] = dose: 25.0 mg/kg/injection, schedule: Q01DX009 (ip), vehicle: saline

C[C@]12C=CC(=O)C=C1CC[C@@H]1[C@@H]2[C@@H](O)C[C@@]2(C)[C@H]1CC[C@]2(O)C(=O)CO
T/C (dose: 25.0 mg/kg/injection, schedule: Q01DX009 (ip), vehicle: Klucel (hydroxypropylcellulose) (HPC)): 107 % of control
T/C (dose: 50.0 mg/kg/injection, schedule: Q01DX009 (ip), vehicle: Klucel (hydroxypropylcellulose) (HPC)): 118 % of control
T/C (dose: 100.0 mg/kg/injection, schedule: Q01DX009 (ip), vehicle: Klucel (hydroxypropylcellulose) (HPC)): 107 % of control
T/C (dose: 200.0 mg/kg/injection, schedule: Q01DX009 (ip), vehicle: Klucel (hydroxypropylcellulose) (HPC)): 118 % of control
T/C (dose: 400.0 mg/kg/injection, schedule: Q01DX009 (ip), vehicle: Klucel (hydroxypropylcellulose) (HPC)): 107 % of control

CCOC(=O)c1ccc(NN=NCCF)cc1
T/C (dose: 3.0 mg/kg/injection, schedule: Q01DX009 (ip), vehicle: distilled water + alcohol): 98 % of control
T/C (dose: 3.12 mg/kg/injection, schedule: Q01DX009 (ip), vehicle: distilled water + Tween-80): 104 % of control
T/C (dose: 6.0 mg/kg/injection, schedule: Q01DX009 (ip), vehicle: distilled water + alcohol): 96 % of control
T/C (dose: 6.25 mg/kg/injection, schedule: Q01DX009 (ip), vehicle: distilled water + Tween-80): 113 % of control
T/C (dose: 12.5 mg/kg/injection, schedule: Q01DX009 (ip), vehicle: distilled water + Tween-80): 98 % of control
T/C (dose: 12.5 mg/kg/injection, schedule: Q01DX009 (ip), vehicle: distilled water + alcohol): 103 % of control
T/C (dose: 25.0 mg/kg/injection, schedule: Q01DX009 (ip), vehicle: distilled water + Tween-80): 113 % of control
T/C (dose: 25.0 mg/kg/injection, schedule: Q01DX009 (ip), vehicle: distilled water + alcohol): 101 % of control
T/C (dose: 50.0 mg/kg/injection, schedule: Q01DX009 (ip), vehicle: distilled water + alcohol): 98 % of control
T/C (dose: 100.0 mg/kg/injection, schedule: Q01DX009 (ip), vehicle: distilled water + alcohol): 98 % of control

CC1=NN(c2cccc(S(=O)(=O)O)c2)C(=O)C1N=Nc1cc(Cl)cc(S(=O)(=O)O)c1O.CC1=NN(c2cccc(S(=O)(=O)O)c2)C(=O)C1N=Nc1cc(Cl)cc(S(=O)(=O)O)c1O.[Cr] (centres undefined)
T/C [1]: 92 % of control
T/C (dose: 50.0 mg/kg/injection, schedule: Q01DX009 (ip), vehicle: saline): 100 % of control
T/C (dose: 100.0 mg/kg/injection, schedule: Q01DX009 (ip), vehicle: saline): 98 % of control
T/C (dose: 200.0 mg/kg/injection, schedule: Q01DX009 (ip), vehicle: saline): 98 % of control

CC(O)CCC(=O)c1ccoc1 (centres undefined)
T/C (dose: 0.62 mg/kg/injection, schedule: Q03HX027 (ip), vehicle: saline): 105 % of control
T/C (dose: 1.25 mg/kg/injection, schedule: Q03HX027 (ip), vehicle: saline): 97 % of control
T/C (dose: 2.5 mg/kg/injection, schedule: Q03HX027 (ip), vehicle: saline): 103 % of control
T/C (dose: 5.0 mg/kg/injection, schedule: Q03HX027 (ip), vehicle: saline): 94 % of control

C=C(C)C(=NC(C)(C)C)Nc1ccccc1
T/C (dose: 6.25 mg/kg/injection, schedule: Q01DX009 (ip), vehicle: saline with Tween-80): 99 % of control
T/C (dose: 12.5 mg/kg/injection, schedule: Q01DX009 (ip), vehicle: saline with Tween-80): 99 % of control
T/C (dose: 25.0 mg/kg/injection, schedule: Q01DX009 (ip), vehicle: saline with Tween-80): 90 % of control
T/C (dose: 50.0 mg/kg/injection, schedule: Q01DX009 (ip), vehicle: saline with Tween-80): 86 % of control
T/C (dose: 100.0 mg/kg/injection, schedule: Q01DX009 (ip), vehicle: saline with Tween-80): 99 % of control
T/C (dose: 200.0 mg/kg/injection, schedule: Q01DX009 (ip), vehicle: saline with Tween-80): 90 % of control

NC(=O)c1ncn2c(=O)n(CCCl)nnc12
T/C (dose: 3.13 mg/kg/injection, schedule: Q01DX009 (ip), vehicle: saline): 113 % of control
T/C (dose: 6.25 mg/kg/injection, schedule: Q01DX009 (ip), vehicle: saline): 123 % of control
T/C [1]: 309 % of control

C[PH+](C)C.C[PH+](C)C.[Au]
T/C (dose: 0.62 mg/kg/injection, schedule: Q01DX009 (ip), vehicle: saline): 97 % of control
T/C (dose: 1.25 mg/kg/injection, schedule: Q01DX009 (ip), vehicle: saline): 102 % of control
T/C (dose: 2.5 mg/kg/injection, schedule: Q01DX009 (ip), vehicle: saline): 105 % of control
T/C (dose: 10.0 mg/kg/injection, schedule: Q01DX009 (ip), vehicle: saline): 109 % of control

Cc1cc(N)c2ccccc2[n+]1CCCCCCCCCC[n+]1c(C)cc(N)c2ccccc21
T/C (dose: 0.12 mg/kg/injection, schedule: Q01DX026 (ip), vehicle: dextrose): 93 % of control
T/C (dose: 0.25 mg/kg/injection, schedule: Q01DX026 (ip), vehicle: dextrose): 104 % of control
T/C (dose: 0.5 mg/kg/injection, schedule: Q01DX026 (ip), vehicle: dextrose): 96 % of control
T/C (dose: 0.75 mg/kg/injection, schedule: Q01DX009 (ip), vehicle: dextrose): 101 % of control
T/C (dose: 1.0 mg/kg/injection, schedule: Q01DX026 (ip), vehicle: dextrose): 99 % of control
T/C (dose: 1.5 mg/kg/injection, schedule: Q01DX009 (ip), vehicle: dextrose): 95 % of control
T/C (dose: 2.0 mg/kg/injection, schedule: Q01DX026 (ip), vehicle: dextrose): 103 % of control
T/C (dose: 3.0 mg/kg/injection, schedule: Q01DX009 (ip), vehicle: dextrose): 104 % of control

Reference: PubChem BioAssay AID276 (DTP/NCI, 2004)
